Each molecule was assayed on SK-N-SH (assay: Inhibition of [3H]NE uptake into human SK-N-SH-SY5Y Neuroblastoma cells).
Assay type: functional, cell-based
With `CNCCC(NS(=O)(=O)c1cccc2c(N(C)C)cccc12)c1ccccc1` (stereo not drawn) the IC50 was 370 nM. For `CNCCC(Nc1ccc([N+](=O)[O-])c2nonc12)c1ccccc1` (stereo not drawn), the IC50 was 850 nM. Molecule `CCOC(=O)[C@@H]1[C@H](O/C(S)=N/c2ccc(/N=N/c3ccc(N(C)C)cc3)cc2)C[C@H]2CC[C@@H]1N2C` has an IC50 of 1320 nM. With `CCOC(=O)[C@@H]1[C@H](OS(=O)(=O)c2cccc3c(N(C)C)cccc23)C[C@H]2CC[C@@H]1N2C` the IC50 was 60 nM. In the case of `N=C(N)NCCN1c2ccccc2C=Cc2ccccc21`, the IC50 is reported as 30 nM. For `N=C(N)NCc1cccc2ccccc12`, the IC50 was 60 nM. `CNCCC(/N=C(\S)Nc1ccc(/N=N/c2ccc(N(C)C)cc2)cc1)c1ccccc1` (stereo not drawn) gave an IC50 of 1020 nM. For `N=C(N)NCc1ccc(/C=C/c2ccccc2)cc1`, the IC50 was 120 nM.
